# Assay results taken from PubChem BioAssay (NCI).
#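 Cells were grown in 96-well plates and exposed to each compound for 48 hours at five concentrations; endpoints were interpolated linearly between bracketing concentrations, or set to the highest concentration if not reached. The concentration for 50% growth inhibition is given as GI50. Definition used: TGI = concentration required for complete inhibition of growth.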
# How the values were obtained:
# Test in all cases: inhibition of tumour cell growth, NCI panel, 48 h
# [1] = test system: BT-549 breast
# [2] = test system: SW-620 colon
# [3] = test system: 786-0 renal
# [4] = test system: EKVX NSCLC
# [5] = test system: RXF 393 renal
# [6] = test system: A549 NSCLC
# [7] = test system: U251 CNS
# [8] = test system: DU-145 prostate
# [9] = test system: SR leukemia
# [10] = test system: SK-MEL-5 melanoma
SMILES,GI50 [1],TGI [1],GI50 [2],TGI [2],GI50 [3],TGI [3],GI50 [4],TGI [4],GI50 [5],TGI [5],GI50 [6],TGI [6],GI50 [7],TGI [7],GI50 [8],TGI [8],GI50 [9],TGI [9],GI50 [10],TGI [10]
O=C1OCC(c2ccc(O)cc2)=C1c1cc(O)c(O)c(O)c1,> 100 µM,> 100 µM,68 µM,> 100 µM,62.5 µM,> 100 µM,> 100 µM,> 100 µM,> 100 µM,> 100 µM,> 100 µM,> 100 µM,31.4 µM,> 100 µM,> 100 µM,> 100 µM,20.7 µM,> 100 µM,> 100 µM,> 100 µM
COc1cccc(-n2ncc3c(N/N=C/c4ccc(C)cc4)ncnc32)c1,> 25 µM,> 25 µM,> 25 µM,> 25 µM,> 25 µM,> 25 µM,> 25 µM,> 25 µM,> 25 µM,> 25 µM,> 25 µM,> 25 µM,> 25 µM,> 25 µM,> 25 µM,> 25 µM,> 14.4 µM,> 25 µM,> 25 µM,> 25 µM
O=P(O)(O)OCC1OC(n2cnc3c(NCc4ccco4)ncnc32)C(O)C1O (configuration not stated),0.575 µM,3.85 µM,0.993 µM,> 44.3 µM,3.35 µM,> 49.9 µM,2.82 µM,> 41 µM,0.965 µM,4.95 µM,2.73 µM,> 37.8 µM,4.33 µM,> 100 µM,0.57 µM,2.4 µM,1.11 µM,3.93 µM,3.89 µM,> 37.4 µM
CCC#CC[C@H](O)C/C=C1/C(=O)C=C[C@@H]1C/C=C\CCCC(=O)OC,1.22 µM,3.04 µM,1.49 µM,4.83 µM,1.22 µM,2.67 µM,1.76 µM,7.73 µM,0.865 µM,1.64 µM,1.6 µM,5.52 µM,0.695 µM,1.99 µM,1.75 µM,7.26 µM,0.278 µM,38.2 µM,0.767 µM,1.46 µM
O=C1NCN(c2ccccc2)C12CCN(CCCC(c1ccc(F)cc1)c1ccc(F)cc1)CC2,2.53 µM,7.94 µM,2.06 µM,4.58 µM,1.67 µM,3.52 µM,–,–,1.72 µM,4.37 µM,2.56 µM,9.68 µM,1.55 µM,2.91 µM,3.25 µM,11.2 µM,0.704 µM,3.74 µM,1.6 µM,2.97 µM
CC(=Nc1ccccc1)C1=C(O)C(Cc2cccc(F)c2)NC1=O (configuration not stated),0.173 µM,> 100 µM,0.0419 µM,> 100 µM,0.0857 µM,> 100 µM,–,–,0.0186 µM,0.0561 µM,0.0511 µM,> 100 µM,0.0702 µM,> 100 µM,0.086 µM,10.2 µM,0.0239 µM,> 72.8 µM,0.0343 µM,1.82 µM
COc1ccc(-c2nsc3c2NC(=O)CC3c2ccc3c(c2)OCCO3)cc1 (configuration not stated),0.674 µM,> 100 µM,0.384 µM,> 100 µM,0.829 µM,> 100 µM,–,–,0.629 µM,–,0.603 µM,> 100 µM,0.5 µM,> 100 µM,1.07 µM,> 21.6 µM,0.301 µM,> 100 µM,0.37 µM,5.86 µM
CN(C)C[C@H]1CCn2c(c(C3=C(c4cn(C)c5ccccc45)C(=O)NC3=O)c3ccccc32)C1,4.83 µM,9.53 µM,4.42 µM,8.89 µM,4.78 µM,9.29 µM,–,–,3.67 µM,7.18 µM,5.11 µM,11.7 µM,3.98 µM,8.2 µM,5.46 µM,10.8 µM,4.26 µM,11.1 µM,4.09 µM,7.71 µM
O=C1CSC(c2ccc(-c3nc4ccccc4[nH]3)cc2)=N1,42.4 µM,> 50 µM,> 50 µM,> 50 µM,42.5 µM,> 50 µM,> 50 µM,> 50 µM,–,–,18.8 µM,> 50 µM,17.4 µM,> 50 µM,31.4 µM,> 50 µM,5.7 µM,> 50 µM,13 µM,> 50 µM
Nc1ncnc2c1c(-c1ccc(Oc3ccccc3)cc1)nn2C[C@H]1SSC[C@@H]1O,3.63 µM,13.5 µM,–,–,3.09 µM,12 µM,0.365 µM,12.1 µM,1.74 µM,5.75 µM,0.519 µM,6.81 µM,1.45 µM,13.2 µM,1.7 µM,10.6 µM,0.165 µM,0.627 µM,0.545 µM,1.79 µM
